From ChEMBL document CHEMBL1139221, “2-(4-Chlorobenzyl)-3-hydroxy-7,8,9,10-tetrahydrobenzo[H]quinoline-4-carboxylic acid (PSI-697): identification of a clinical candidate from the quinoline salicylic acid series of P-selectin antagonists” (J Med Chem, 2007)
Values after ≈ are worked out from the molar mass of the structure shown.

How the values were obtained:
P-selectin = biological target: T1, P-selectin (Homo sapiens, UniProt P16109); experiment: Inhibition of P-Selectin by Biacore assay
T1 sequence (P16109 whole entry): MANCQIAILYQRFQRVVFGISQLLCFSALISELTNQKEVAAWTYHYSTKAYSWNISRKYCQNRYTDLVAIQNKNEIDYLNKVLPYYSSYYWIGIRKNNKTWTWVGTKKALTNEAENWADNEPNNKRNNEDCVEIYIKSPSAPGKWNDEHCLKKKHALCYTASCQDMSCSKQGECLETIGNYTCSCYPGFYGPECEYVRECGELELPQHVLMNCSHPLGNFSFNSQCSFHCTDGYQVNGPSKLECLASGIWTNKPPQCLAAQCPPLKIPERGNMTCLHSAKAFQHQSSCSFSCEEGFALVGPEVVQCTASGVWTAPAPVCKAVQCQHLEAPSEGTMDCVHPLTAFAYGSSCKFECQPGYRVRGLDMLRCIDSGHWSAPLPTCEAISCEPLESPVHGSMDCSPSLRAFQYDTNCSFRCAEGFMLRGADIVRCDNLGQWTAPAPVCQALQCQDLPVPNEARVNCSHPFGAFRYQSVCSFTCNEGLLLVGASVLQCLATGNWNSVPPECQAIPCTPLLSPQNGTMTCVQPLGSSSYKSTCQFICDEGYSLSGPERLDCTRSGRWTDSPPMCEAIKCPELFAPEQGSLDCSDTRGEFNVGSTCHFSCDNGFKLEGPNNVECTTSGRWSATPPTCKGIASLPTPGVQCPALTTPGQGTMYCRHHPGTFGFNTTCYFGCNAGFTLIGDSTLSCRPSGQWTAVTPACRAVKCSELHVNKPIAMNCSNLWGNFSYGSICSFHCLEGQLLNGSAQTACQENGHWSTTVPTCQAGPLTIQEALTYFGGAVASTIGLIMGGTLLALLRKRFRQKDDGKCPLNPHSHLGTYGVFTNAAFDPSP

[1] = Stability in rat liver microsome; format: ADME; details: liver microsomes
[2] = Inhibition of leukocyte rolling in mouse at 50 mg/kg, po; format: functional
[3] = Bioavailability in Sprague-Dawley rat; format: ADME, organism-based; details: in vivo
Rattus norvegicus [4] = species: Rattus norvegicus; experiment: AUC in Sprague-Dawley rat; format: ADME, organism-based, Plasma; details: in vivo
Mus musculus [5] = species: Mus musculus; experiment: AUC in C57 mouse; format: ADME, organism-based, Plasma; details: in vivo
[6] = Bioavailability in C57 mouse; format: ADME, organism-based; details: in vivo
[7] = Solubility at pH 7.4; format: physicochemical; details: buffer
Mus musculus [8] = experiment: Inhibition of aortic lesion in apo E -/- mouse model at 100 mg/kg; format: functional; details: Aorta
[9] = Oral bioavailability in Beagle dog at 15 mg/kg; format: ADME, organism-based, Canis lupus familiaris; details: in vivo
Rattus norvegicus [10] = experiment: Inhibition of neointimal hyperplasia in Sprague-Dawley rat carotid ballon injury model at 30 mg/kg, po; format: functional

Work on `O=C(O)c1c(O)c(Cc2cccc(Cl)c2)nc2c3c(ccc12)CCCC3` yielded an IC50 (P-selectin) of 138 µM and a half-life [1] of 6 min.

With `O=C(O)c1c(O)c(Cc2c[nH]c3ccc(Cl)cc23)nc2c(C(F)(F)F)cccc12` the IC50 (P-selectin) was 250 µM and the inhibition in vivo at 50 mg/kg [2] was 23%.

In the case of `O=C(O)c1c(O)c(Cc2c[nH]c3ccccc23)nc2c3c(ccc12)CCCC3`, the bioavailability [3] is reported as 41%, the AUC/dose (Rattus norvegicus [4]) is reported as 0.607 µg·h/mL and the AUC/dose (Mus musculus [5]) is reported as 0.218 µg·h/mL. For the same compound, the bioavailability [6] was 30%, the IC50 (P-selectin) was 225 µM and the inhibition in vivo at 50 mg/kg [2] was 62%.

For `O=C(O)c1c(O)c(Cc2c[nH]c3ccc(Cl)cc23)nc2c3c(ccc12)CCCC3`, the bioavailability [3] was 5%, the AUC/dose (Rattus norvegicus [4]) was 0.096 µg·h/mL and the IC50 (P-selectin) was 175 µM. It also gave a solubility [7] of 20 µg/mL (≈ 49.2 µM).

In the case of `O=C(O)c1c(O)c(Cc2ccc(Cl)cc2)nc2c3c(ccc12)CCCC3` [PSI-697], the bioavailability [3] is reported as 20%, the AUC/dose (Rattus norvegicus [4]) is reported as 0.62 µg·h/mL and the inhibition in vivo at 100 mg/kg (Mus musculus [8]) is reported as 49%. For the same compound, the AUC/dose (Mus musculus [5]) was 1.5 µg·h/mL, the bioavailability [6] was 100% and the IC50 (P-selectin) was 125 µM. It also gave a bioavailability [9] of 58%, an inhibition in vivo at 30 mg/kg (Rattus norvegicus [10]) of 40% and an inhibition in vivo at 50 mg/kg [2] of 56%.

Work on `O=C(O)c1c(O)c(Cc2ccccc2Cl)nc2c3c(ccc12)CCCC3` yielded an IC50 (P-selectin) of 123 µM and a half-life [1] of 6 min.
